Target: T1, DPP-IV (Homo sapiens, UniProt P27487)
T1 construct: Soluble human DPP-IV lacking the transmembrane anchor (Gly31-Pro766); Pre-Pro-alpha-mating factor leader (secretion fusion) (N, cleaved yes); made in house
Assay: Inhibition of DPP-IV peptidase activity, continuous fluorimetric assay (Gly-Pro-AMC cleavage)
Type: biochemical, human and porcine
Details: 50 pM DPP-IV, 16 µM substrate Gly-Pro-AMC, pH 7.4, 25 °C, values grouped in 2 classes
Protocol: Inhibition of DPP-IV peptidase activity was monitored with a continuous fluorimetric assay. This assay is based on the cleavage of the substrate Gly-Pro-AMC (Bachem) by DPP-IV, releasing free AMC. The assay is carried out in 96-well microtiterplates. In a total volume of 100 µL, compounds are preincubated with 50 pM DPP-IV employing a buffer containing 10mM Hepes, 150mM NaCl, 0.005% Tween 20 (pH 7.4). The reaction is started by the addition of 16 µM substrate and the fluorescence of liberated AMC is detected for 10 minutes at 25 °C with a fluorescence reader (BMG-Fluostar; BMG-Technologies) using an excitation wavelength of 370 nm and an emission wavelength of 450 nm. The final concentration of DMSO is 1 %. The inhibitory potential of the compounds were determined.
Soluble human DPP-IV lacking the transmembrane anchor (Gly31-Pro766) was expressed in a recombinant YEAST-strain as Pre-Pro-alpha-mating fusion. The secreted product (rhuDPP-IV-Gly31-Pro766) was purified from fermentation broth (>90% purity).
In table 1 are listed the IC50 values for inhibition of DPP-IV peptidase activity determined in assays as described above. The IC50 values were grouped in 2 classes: a ≤ 100 nM; b ≥101 nM and ≤ 1000 nM.

T1 sequence (P27487 31-766): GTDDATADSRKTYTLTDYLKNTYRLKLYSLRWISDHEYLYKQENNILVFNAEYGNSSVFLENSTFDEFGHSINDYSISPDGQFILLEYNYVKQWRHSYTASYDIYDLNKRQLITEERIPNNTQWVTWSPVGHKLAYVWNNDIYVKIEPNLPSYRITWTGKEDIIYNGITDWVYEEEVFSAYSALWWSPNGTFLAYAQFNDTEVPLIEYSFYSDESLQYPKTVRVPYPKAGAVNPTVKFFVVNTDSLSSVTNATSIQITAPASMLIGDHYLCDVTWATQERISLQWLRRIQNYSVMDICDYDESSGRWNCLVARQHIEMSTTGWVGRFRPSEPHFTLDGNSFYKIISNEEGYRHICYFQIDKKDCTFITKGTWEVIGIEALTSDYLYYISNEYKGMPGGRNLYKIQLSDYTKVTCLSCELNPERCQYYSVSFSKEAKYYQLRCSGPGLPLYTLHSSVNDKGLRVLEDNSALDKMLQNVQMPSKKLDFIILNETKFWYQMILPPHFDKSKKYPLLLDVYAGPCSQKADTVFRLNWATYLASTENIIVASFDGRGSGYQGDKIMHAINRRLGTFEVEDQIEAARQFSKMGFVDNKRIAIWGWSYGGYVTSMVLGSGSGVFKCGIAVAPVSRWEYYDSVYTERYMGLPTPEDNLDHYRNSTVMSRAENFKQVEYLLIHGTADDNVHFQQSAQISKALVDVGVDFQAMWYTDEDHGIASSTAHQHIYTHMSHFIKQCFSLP

IC50 [µM]	SMILES
≤ 0.1	CC(C)c1ncc(C(=O)N2CCC([C@H](N)Cc3cc(F)c(F)cc3F)CC2)c(C2CC2)n1 [Example 5]
≤ 0.1	Cc1ncc(C(=O)N2CCC([C@H](N)Cc3cc(F)c(F)cc3F)CC2)c(C(F)(F)F)n1 [Example 6]
≤ 0.1	Cc1nc(C(F)(F)F)ncc1C(=O)N1CCC([C@H](N)Cc2cc(F)c(F)cc2F)CC1 [Example 2, {4-[(R)-1-Amino-2-(2,4,5-trifluoro-phenyl)-ethyl]-piperidin-1-yl}-(4-methyl-2-trifluoromethylpyrimidin-5-yl)-methanone]
≤ 0.1	Cc1nc(N)ncc1C(=O)N1CCC([C@H](N)Cc2cc(F)c(F)cc2F)CC1 [Example 7]
≤ 0.1	N[C@H](Cc1cc(F)c(F)cc1F)C1CCN(C(=O)c2cnc(-c3ccccn3)nc2C(F)(F)F)CC1 [Example 8]
≤ 0.1	N[C@H](Cc1cc(F)c(F)cc1F)C1CCN(C(=O)c2cnc(C(F)(F)F)nc2C2CC2)CC1 [Example 4]
≤ 0.1	Cc1nc(-c2ccccc2)ncc1C(=O)N1CCC([C@H](N)Cc2cc(F)c(F)cc2F)CC1 [Example 9]
≤ 0.1	Cc1ncc(C(=O)N2CCC([C@H](N)Cc3cc(F)c(F)cc3F)CC2)c(C)n1 [Example 1, {4-[(R)-1-Amino-2-(2,4,5-trifluoro-phenyl)-ethyl]-piperidin-1-yl}-(2,4-dimethyl-pyrimidin-5-yl)-methanone]

— EP2019099A1, “Dpp-IV inhibitors” (Santhera Pharmaceuticals (Schweiz) AG, priority 2007, dated 2009)
